Results taken from ChEMBL document CHEMBL1201862, “PubChem BioAssay data set” (2004).
Calls of active or inactive are those of the source.

Columns and labels:
HEK293 [1] = experiment: cells; type: functional, cell-based; details: Homo sapiens
[2] = target: T1, Nuclear receptor subfamily 0 group B member 1 (Homo sapiens, UniProt P51843); experiment: Luminescence-based cell-based high throughput dose response assay for inhibitors of the orphan nuclear receptor subfamily 0, group B, member 1 (DAX1; NR0B1). [Related pubchem assays (depositor defined):AID504766, AID504790]; type: functional
T1 sequence (P51843 whole entry): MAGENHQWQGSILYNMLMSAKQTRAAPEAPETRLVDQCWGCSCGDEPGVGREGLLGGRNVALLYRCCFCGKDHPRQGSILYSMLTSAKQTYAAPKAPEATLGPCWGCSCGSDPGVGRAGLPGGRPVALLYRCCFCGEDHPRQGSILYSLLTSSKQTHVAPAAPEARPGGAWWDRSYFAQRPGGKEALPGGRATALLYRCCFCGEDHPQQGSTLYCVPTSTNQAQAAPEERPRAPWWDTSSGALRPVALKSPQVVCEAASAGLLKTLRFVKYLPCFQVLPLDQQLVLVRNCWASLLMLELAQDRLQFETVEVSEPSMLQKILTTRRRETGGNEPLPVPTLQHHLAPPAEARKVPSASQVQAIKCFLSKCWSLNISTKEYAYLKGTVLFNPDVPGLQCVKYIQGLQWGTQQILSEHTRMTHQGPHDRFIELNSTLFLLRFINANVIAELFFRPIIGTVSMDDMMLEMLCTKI

CAAX prenyl protease 2 [3] = target: CAAX prenyl protease 2 (Homo sapiens, UniProt Q9Y256); experiment: inhibition of Ras-converting CAAX protease Rce1 – biochemical, yeast membranes, quenched-peptide fluorescence, cherry-pick, dose response (AID 588849)
CAAX prenyl protease 2 (Homo sapiens, UniProt Q9Y256), sequence (Q9Y256 whole entry): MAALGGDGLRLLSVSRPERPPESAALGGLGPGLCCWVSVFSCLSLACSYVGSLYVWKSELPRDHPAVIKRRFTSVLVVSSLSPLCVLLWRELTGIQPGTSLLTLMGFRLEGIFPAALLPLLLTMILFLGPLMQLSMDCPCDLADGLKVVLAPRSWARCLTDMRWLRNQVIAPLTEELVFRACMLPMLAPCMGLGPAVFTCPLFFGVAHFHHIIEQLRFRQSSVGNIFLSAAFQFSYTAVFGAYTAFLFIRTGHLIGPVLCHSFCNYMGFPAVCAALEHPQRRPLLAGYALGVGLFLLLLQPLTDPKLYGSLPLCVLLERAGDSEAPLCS

Trypsin = Trypsin (Sus scrofa, UniProt P00761); experiment: trypsin protease activity blockade – biochemical, quenched peptide fluorescence, cherry-pick, selectivity assay for Rce1 protease inhibitor project, dose response (AID 488789)
Trypsin, sequence (P00761 whole entry): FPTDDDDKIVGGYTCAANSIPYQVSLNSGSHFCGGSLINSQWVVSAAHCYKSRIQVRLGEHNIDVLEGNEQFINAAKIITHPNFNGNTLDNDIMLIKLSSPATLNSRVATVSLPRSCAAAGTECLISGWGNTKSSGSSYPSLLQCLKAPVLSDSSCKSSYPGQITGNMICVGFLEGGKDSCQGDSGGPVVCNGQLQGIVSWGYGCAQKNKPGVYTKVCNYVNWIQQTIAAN

CAAX prenyl protease 2 [4] = target: T2, CAAX prenyl protease 2 (Saccharomyces cerevisiae S288c, UniProt Q03530); type: biochemical
T2 sequence (Q03530 whole entry): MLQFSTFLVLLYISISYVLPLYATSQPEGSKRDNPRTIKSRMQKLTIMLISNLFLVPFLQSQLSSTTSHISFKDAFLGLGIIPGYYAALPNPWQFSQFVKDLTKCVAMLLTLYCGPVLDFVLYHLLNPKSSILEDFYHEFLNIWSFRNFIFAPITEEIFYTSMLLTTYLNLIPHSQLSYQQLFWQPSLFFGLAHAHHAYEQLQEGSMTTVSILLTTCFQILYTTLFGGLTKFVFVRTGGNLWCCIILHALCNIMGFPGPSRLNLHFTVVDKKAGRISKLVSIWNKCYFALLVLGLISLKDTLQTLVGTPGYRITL

Cysteine protease ATG4B = Cysteine protease ATG4B (Homo sapiens, UniProt Q9Y4P1); type: functional;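 further: Fluorescence-based dose-response confirmation assay measuring inhibition of ATG4B activity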
Cysteine protease ATG4B, sequence (Q9Y4P1 whole entry): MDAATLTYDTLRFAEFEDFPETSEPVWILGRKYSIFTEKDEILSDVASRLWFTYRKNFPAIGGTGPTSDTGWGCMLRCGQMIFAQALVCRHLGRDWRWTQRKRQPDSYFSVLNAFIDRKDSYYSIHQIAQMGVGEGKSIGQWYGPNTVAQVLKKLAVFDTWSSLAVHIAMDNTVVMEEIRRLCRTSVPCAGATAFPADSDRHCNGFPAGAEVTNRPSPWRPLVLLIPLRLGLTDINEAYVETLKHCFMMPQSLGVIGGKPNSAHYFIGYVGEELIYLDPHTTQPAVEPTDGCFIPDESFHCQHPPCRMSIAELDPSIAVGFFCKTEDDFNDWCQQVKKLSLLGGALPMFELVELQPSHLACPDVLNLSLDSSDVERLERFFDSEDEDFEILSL

Phospholipase A2 = Phospholipase A2 (Homo sapiens, UniProt P04054); type: functional;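 further: confirmatory dose-response counterscreen on phospholipase A2, testing hits that came from an ultra-high-throughput screen for ATG4B inhibitors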
Phospholipase A2, sequence (P04054 whole entry): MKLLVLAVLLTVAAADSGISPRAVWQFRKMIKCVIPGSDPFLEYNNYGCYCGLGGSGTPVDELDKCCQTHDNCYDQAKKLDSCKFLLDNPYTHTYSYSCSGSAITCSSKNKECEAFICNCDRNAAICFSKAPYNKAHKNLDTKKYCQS

[5] = target: T3, Short transient receptor potential channel 4 (Mus musculus, UniProt Q9QUQ5); experiment: block of DAMGO-driven TRPC4 calcium entry – cell-based, HEK293 TRPC4/mu-opioid, Fluo-4 calcium, dose response (AID 434942); type: functional;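 further: potency of inhibitors blocking the TRPC4 calcium response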
T3 sequence (Q9QUQ5 whole entry): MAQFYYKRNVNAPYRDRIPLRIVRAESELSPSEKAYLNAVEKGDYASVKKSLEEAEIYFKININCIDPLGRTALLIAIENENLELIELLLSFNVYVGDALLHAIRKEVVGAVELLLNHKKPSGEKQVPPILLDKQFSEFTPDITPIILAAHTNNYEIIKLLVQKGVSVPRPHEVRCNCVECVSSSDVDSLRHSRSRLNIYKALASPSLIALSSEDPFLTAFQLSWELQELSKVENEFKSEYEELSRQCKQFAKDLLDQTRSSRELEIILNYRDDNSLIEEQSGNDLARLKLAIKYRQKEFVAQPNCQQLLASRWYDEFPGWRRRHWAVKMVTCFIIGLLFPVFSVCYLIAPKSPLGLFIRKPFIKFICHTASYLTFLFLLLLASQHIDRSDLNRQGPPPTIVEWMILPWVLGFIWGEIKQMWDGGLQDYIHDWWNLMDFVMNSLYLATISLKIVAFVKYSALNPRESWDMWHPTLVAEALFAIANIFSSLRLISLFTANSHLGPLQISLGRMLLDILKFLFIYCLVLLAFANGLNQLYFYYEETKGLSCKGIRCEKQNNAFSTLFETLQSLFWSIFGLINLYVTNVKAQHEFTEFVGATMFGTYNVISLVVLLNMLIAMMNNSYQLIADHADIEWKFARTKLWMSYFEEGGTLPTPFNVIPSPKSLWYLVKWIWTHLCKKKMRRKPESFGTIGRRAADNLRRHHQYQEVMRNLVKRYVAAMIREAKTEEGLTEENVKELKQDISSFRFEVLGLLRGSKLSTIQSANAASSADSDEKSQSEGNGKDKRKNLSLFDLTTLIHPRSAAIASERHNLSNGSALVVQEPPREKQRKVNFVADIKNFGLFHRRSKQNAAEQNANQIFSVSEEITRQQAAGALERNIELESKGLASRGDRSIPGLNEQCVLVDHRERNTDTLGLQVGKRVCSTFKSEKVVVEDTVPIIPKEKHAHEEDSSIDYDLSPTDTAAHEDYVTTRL

Genome polyprotein = Genome polyprotein (dengue virus type 2, UniProt P29990); experiment: flavivirus cap methylation enzyme inhibition – biochemical, confirmation dose response, primary screen (AID 588689); type: functional
Genome polyprotein, sequence (P29990 2492-3391 limits assumed): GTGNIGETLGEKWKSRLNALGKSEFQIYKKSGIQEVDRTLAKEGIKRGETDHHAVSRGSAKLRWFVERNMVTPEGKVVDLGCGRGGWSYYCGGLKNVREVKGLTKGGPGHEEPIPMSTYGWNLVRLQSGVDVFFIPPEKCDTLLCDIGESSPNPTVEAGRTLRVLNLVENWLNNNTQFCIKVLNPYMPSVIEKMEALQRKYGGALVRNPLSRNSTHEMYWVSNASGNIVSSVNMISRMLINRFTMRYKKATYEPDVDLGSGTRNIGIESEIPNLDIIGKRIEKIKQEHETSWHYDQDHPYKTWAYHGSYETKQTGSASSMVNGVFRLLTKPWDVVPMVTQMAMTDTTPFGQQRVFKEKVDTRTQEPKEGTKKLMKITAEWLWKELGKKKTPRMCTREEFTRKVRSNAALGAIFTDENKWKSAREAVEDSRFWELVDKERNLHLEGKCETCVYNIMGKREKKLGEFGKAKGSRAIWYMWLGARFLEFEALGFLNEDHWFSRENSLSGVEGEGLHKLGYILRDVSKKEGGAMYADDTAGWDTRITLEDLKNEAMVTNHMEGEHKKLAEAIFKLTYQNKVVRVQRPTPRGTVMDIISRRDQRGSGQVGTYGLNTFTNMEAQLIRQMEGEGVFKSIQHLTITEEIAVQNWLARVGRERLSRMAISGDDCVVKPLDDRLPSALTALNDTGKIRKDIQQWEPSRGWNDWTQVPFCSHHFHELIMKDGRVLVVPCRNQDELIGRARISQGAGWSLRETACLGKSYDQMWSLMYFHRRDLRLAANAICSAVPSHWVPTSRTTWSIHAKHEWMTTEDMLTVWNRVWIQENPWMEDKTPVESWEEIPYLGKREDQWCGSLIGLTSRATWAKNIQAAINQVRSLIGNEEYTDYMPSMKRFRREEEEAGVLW

A-375 [6] = experiment: proliferation inhibition in MITF-low A375 cells – cell-based, cherry-pick samples, set 2, counter-screen for MITF modulator project, dose response (AID 540335); type: functional; details: Homo sapiens
A-375 [7] = experiment: MITF: Counter assay: A375 proliferation Measured in Cell-Based System Using Plate Reader - 2084-03_Inhibitor_Dose_DryPowder_Activity. [Related pubchem assays (depositor defined):AID488944]; type: functional; details: Homo sapiens
cells [8] = type: functional, cell-based
[9] = alpha-synuclein stem-loop luciferase translation blockers – H4 neuroglioma cells, luminescence, confirmation (AID 1988); type: functional, cell-based
cells [10] = type: functional, cell-based; remark: listed apart in the source
[11] = Trypanosoma cruzi growth suppression in host cells – NIH3T3 host cells, beta-gal luminescence, confirmation (AID 2044); type: functional, cell-based;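 further: intracellular parasites grown in NIH/3T3 mouse fibroblasts as host cells; luminescent beta-galactosidase reporter signal from transgenic T. cruzi replicating inside host cells; inhibitors lower the luminescence signal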
HEK293 [12] = experiment: EBV LMP1 TES2 canonical NF-kB signalling blockers – cell-based, HEK293, luciferase, cherry-pick, dose response (AID 588343); type: functional; details: Homo sapiens
[13] = Luminescence Cell-Based Dose Response HTS to Identify Inhibitors of 5'UTR Stem-Loop Driven Prion Protein mRNA Translation in H4 Neuroglioblastoma Cells. [Related pubchem assays: 1827 (Project Summary), 1813 (Primary HTS)]; type: functional
[14] = target: T4, Latent membrane protein 1 (Human herpesvirus 4 (strain B95-8), UniProt P03230); experiment: LMP1 TES1 pathway selectivity over dsRED control – imaging, HEK293T, dual-color eGFP/dsRED, cherry-picks, selectivity assay for LMP1 NF-kB inhibitor project, dose response (AID 588398); type: functional, cell-based
T4 sequence (P03230 whole entry): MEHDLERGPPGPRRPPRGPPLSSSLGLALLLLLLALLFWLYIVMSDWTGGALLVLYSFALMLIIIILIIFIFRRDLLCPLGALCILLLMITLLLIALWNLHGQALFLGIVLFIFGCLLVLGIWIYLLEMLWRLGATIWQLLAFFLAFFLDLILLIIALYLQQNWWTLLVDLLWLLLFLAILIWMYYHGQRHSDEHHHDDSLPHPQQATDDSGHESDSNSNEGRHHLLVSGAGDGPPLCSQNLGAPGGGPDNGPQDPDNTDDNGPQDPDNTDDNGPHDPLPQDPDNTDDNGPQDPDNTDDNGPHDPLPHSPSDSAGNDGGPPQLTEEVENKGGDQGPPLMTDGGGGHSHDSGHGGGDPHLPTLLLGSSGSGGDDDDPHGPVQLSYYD

[15] = decrease of insulin promoter-GFP reporter – imaging, high-content screening, mouse beta cells (AID 1628); type: functional; details: MIN6
[16] = MIN6 cell viability loss – mouse insulinoma, cytotoxicity control, dose response (AID 2122); type: functional;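 further: confirmatory high-throughput counterscreen run to flag cytotoxic compounds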
[17] = target: Heat shock protein HSP 90-alpha (Homo sapiens, UniProt P07900); type: functional, organism-based
[18] = luciferase reporter signal suppression in cells – H4 neuroglioma cells, luminescence, dose response (AID 1990); type: functional, cell-based
[19] = NIH3T3 cell viability loss – ATP luminescence, mouse fibroblasts, counter-screen, dose response (AID 2010); type: functional, cell-based;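 further: cells exposed to compound for about 90 hours before reading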
[20] = inhibition of ARNT PAS-B/TACC3 complex formation – biochemical, AlphaScreen, cherry-picked samples, confirmation (AID 651703); type: functional, Homo sapiens;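 further: His-tagged ARNT PAS-B domain paired with GST-TACC3 E629A dimer coactivator fragment; potency of inhibitors that break up the complex and lower AlphaScreen signal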
Beta-galactosidase = Beta-galactosidase (Escherichia coli, UniProt Q8VNN2); experiment: PubChem AID 485352; type: functional
Beta-galactosidase, sequence (Q8VNN2 whole entry): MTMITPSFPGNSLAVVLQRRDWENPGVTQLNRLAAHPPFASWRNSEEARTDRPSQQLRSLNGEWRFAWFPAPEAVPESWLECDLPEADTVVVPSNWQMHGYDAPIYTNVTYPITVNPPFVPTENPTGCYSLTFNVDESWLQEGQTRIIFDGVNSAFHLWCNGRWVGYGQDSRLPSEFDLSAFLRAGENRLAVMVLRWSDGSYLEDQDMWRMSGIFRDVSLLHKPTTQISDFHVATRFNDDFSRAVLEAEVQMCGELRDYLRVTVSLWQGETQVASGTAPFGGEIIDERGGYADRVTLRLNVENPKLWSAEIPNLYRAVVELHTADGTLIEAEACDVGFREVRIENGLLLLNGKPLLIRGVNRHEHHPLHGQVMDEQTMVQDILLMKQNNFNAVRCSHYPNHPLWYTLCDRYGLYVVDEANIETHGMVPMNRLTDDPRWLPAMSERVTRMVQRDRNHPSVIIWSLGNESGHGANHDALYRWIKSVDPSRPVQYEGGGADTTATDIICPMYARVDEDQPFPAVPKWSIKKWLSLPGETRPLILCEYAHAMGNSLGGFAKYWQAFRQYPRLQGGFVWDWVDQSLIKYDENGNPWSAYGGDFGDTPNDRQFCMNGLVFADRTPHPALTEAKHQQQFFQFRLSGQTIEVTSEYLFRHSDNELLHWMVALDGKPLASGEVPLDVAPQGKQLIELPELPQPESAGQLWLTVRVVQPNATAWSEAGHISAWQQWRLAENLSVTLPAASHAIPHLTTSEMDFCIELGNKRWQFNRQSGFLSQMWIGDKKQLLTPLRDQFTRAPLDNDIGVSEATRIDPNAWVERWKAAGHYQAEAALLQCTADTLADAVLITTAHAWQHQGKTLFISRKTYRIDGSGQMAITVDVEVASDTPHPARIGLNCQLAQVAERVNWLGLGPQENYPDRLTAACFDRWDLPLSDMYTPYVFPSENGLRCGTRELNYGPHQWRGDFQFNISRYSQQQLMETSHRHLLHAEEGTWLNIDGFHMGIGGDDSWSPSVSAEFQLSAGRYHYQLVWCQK

[21] = target: T5, Type-1 angiotensin II receptor (Homo sapiens, UniProt P30556); experiment: antagonism of angiotensin II type 1 receptor – cell-based, uHTS hits, selectivity assay for APJ receptor antagonist project, dose response (AID 463214); type: functional;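 further: antagonist potency against angiotensin II stimulated AT1 response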
T5 sequence (P30556 whole entry): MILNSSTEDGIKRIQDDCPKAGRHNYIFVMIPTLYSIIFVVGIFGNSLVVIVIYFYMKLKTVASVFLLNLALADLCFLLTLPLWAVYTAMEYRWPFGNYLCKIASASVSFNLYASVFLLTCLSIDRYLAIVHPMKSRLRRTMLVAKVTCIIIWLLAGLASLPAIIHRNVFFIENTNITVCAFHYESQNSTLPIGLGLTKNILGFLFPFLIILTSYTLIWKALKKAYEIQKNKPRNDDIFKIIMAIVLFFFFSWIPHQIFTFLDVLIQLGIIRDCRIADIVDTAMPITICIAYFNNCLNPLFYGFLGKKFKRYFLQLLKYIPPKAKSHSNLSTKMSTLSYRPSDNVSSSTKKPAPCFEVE

[22] = target: Voltage-gated inwardly rectifying potassium channel KCNH2 (Homo sapiens, UniProt Q12809); details: Potency;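 further: confirmatory quantitative high-throughput screen measuring inhibition of hERG channel activity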
Voltage-gated inwardly rectifying potassium channel KCNH2, sequence (Q12809 whole entry): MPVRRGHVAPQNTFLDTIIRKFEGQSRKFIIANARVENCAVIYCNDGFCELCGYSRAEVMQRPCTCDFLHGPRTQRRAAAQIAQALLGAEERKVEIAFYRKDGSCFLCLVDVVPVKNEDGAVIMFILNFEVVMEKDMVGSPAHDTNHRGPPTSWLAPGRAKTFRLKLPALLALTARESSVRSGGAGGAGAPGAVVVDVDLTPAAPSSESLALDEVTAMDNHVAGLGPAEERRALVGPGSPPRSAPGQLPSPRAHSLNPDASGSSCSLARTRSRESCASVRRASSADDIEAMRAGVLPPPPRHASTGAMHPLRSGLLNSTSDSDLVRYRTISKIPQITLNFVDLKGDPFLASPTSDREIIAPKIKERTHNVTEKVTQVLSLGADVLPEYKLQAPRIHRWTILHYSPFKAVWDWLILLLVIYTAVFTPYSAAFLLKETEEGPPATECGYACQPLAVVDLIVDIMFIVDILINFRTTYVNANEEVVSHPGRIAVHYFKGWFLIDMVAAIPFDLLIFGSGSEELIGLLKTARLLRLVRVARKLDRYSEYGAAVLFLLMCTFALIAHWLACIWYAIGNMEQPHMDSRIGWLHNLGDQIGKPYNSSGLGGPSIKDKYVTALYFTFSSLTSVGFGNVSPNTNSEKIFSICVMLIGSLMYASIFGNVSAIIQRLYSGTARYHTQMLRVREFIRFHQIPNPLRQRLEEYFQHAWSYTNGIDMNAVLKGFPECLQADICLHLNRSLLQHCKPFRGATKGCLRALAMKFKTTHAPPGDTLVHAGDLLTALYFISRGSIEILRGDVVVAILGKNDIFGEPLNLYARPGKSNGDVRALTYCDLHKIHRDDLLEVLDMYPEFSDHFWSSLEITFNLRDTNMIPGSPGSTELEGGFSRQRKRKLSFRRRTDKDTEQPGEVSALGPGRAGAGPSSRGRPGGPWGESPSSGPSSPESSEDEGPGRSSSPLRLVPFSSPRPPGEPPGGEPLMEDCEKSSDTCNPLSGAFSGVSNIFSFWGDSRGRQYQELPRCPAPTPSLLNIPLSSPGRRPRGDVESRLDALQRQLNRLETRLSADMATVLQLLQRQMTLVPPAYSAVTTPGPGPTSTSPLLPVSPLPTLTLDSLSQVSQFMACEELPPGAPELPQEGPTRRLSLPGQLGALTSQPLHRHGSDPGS

With O=C(O)Cc1nn(Cc2ccc(Cl)cc2)c(=O)c2ccccc12 the IC50 (HEK293 [1]) was > 67.5 µM (inactive) and the IC50 [2] was > 67.5 µM (inactive).
For COc1ccccc1CNC(=O)c1ccccc1N, the AC50 (CAAX prenyl protease 2 [3]) was 4.31 µM (active), the AC50 (Trypsin) was 6.1 µM (active) and the AC50 (CAAX prenyl protease 2 [4]) was 6.36 µM (active).
For Cc1ccc(/C=C2\SC(=S)N(C(Cc3ccccc3)C(=O)O)C2=O)cc1 (stereo not drawn), the IC50 (Cysteine protease ATG4B) was 9.14 µM (active), the IC50 (Phospholipase A2) was 10.6 µM (active) and the EC50 [5] was 5.96 µM (active). For the same compound, the IC50 (Genome polyprotein) was 39.1 µM (active).
In the case of CCOC(=O)c1cc(-c2ccc(OC)cc2)[nH]n1, the AC50 (A-375 [6]) is reported as > 35 µM (active) and the AC50 (A-375 [7]) is reported as > 35 µM (active).
For O=C(CCc1ccccc1)NC(c1cccs1)c1cc(Cl)c2cccnc2c1O (stereo not drawn), the EC50 (cells [8]) was > 350 µM (not active), the EC50 [9] was 4.12 µM (inconclusive) and the EC50 (cells [10]) was 9.12 µM (active). The EC50 [11] was 0.536 µM (active), the AC50 (HEK293 [12]) was 9.35 µM (active) and the EC50 [13] was 0.219 µM (active). For the same compound, the AC50 [14] was 10.2 µM (active), the IC50 [15] was 1.77 µM (active) and the IC50 [16] was 1.78 µM (active). For the same compound, the AC50 [17] was 16.9 µM (active), the EC50 [18] was 9.65 µM (active) and the EC50 [19] was 1.61 µM (active).
In the case of Cc1ccc(/C=N/NC(=S)N2CCOCC2)cc1, the AC50 [20] is reported as 112 µM (active), the EC50 (Beta-galactosidase) is reported as > 40 µM (inactive) and the IC50 [21] is reported as 8.6 µM (active).
With CCCCCCOc1ccc(N2C(=O)CC(SC(=N)N/N=C(\C)c3cccs3)C2=O)cc1 (stereo not drawn) the IC50 (Cysteine protease ATG4B) was 9.46 µM (active) and the IC50 (Phospholipase A2) was 5.58 µM (active).
For COc1ccc(C(=O)CCNc2ccc(F)cc2)cc1, the EC50 (cells [10]) was > 350 µM (not active), the AC50 (A-375 [6]) was > 35 µM (active) and the AC50 (A-375 [7]) was > 35 µM (active).
In the case of O=C(CNC(=O)c1ccc(Br)o1)OCC(=O)c1cccc([N+](=O)[O-])c1, the EC50 (Beta-galactosidase) is reported as > 40 µM (inactive) and the IC50 [21] is reported as 27.3 µM (not active).
For CCCCCCCCCCCCCCC[C@H](O)[C@H](N)CO, the AC50 [22] was 35.5 µM (inconclusive).
In the case of CC/C=C/C/C=C/C/C=C/CCCCCCCC(=O)OCC, the AC50 [22] is reported as 28.2 µM (inconclusive).
In the case of O=C(COc1ccc2ccc(=O)oc2c1)N1CCC(C(=O)O)(c2ccccc2)CC1, the AC50 (CAAX prenyl protease 2 [3]) is reported as 98.6 µM (active).
In the case of CC(=O)c1csc(COc2ccc(Cl)cc2)n1, the IC50 (HEK293 [1]) is reported as > 67.6 µM (inactive) and the IC50 [2] is reported as > 67.6 µM (inactive).
